Test system: NCAPG2 pT1010
Assay: NCAPG2 pT1010-specific antibody reactivity after phosphorylase inhibitor treatment of nocodazole-treated breast cancer cells
Type: cell-based, human
Conditions: MBAMB 231 treated with nocodazole, then inhibitor for 2 hours; FIG. 1B, 1C
Protocol: In addition, to confirm a phosphorylase inducing phosphorylation, after treating a breast cancer cell line MBAMB 231 with nocodazole, which is a mitosis-inducing reagent, and then with inhibitors of phosphorylases regulating mitosis for 2 hours, the reactivity of the NCAPG2 pT1010-specific antibody was confirmed.

| SMILES | NCAPG2 pT1010 phosphospecific bands after kinase inhibition |
| --- | --- |
| O=C1NC(=NCc2cccs2)S/C1=C\c1ccc2ncccc2c1 [RO3306] | phosphospecific bands disappear |
| c1nc2nc(Nc3ccc(N4CCOCC4)cc3)nc(NC3CCCCC3)c2[nH]1 [reversine] | phosphospecific bands disappear |

From US20240279319A1, “ANTIBODY FOR IDENTIFYING PHOSPHORYLATION-SPECIFIC REACTIONS OF THREONINE AT POSITION 1010 OF NCAPG2, AND USE THEREOF” (NATIONAL CANCER CENTER, priority 2021, published 2024)
